Columns and labels:
Assay in all cases: KINOMEscan competition binding
Settings in all cases: compound 10.0 µM
SIK3 (human) = SIK3 (human) (UniProt Q9Y2K2)
PRKCI (human) = PRKCI (human) (UniProt P41743)
HIPK4 (human) = HIPK4 (human) (UniProt Q8NE63)
RPS6KA5 KD1 (human) = RPS6KA5 KD1 (human) (UniProt O75582)
RET (human) = RET (human) (UniProt P07949)
CDK17 (human) = CDK17 (human) (UniProt Q00537)
CDK4 CCND1 (human) = CDK4 CCND1 (human) (UniProt P11802+P24385)
AAK1 (human) = AAK1 (human) (UniProt Q2M2I8)
RPS6KA2 KD1 (human) = RPS6KA2 KD1 (human) (UniProt Q15349)
PRKG1 (human) = PRKG1 (human) (UniProt Q13976)
PLK1 (human) = PLK1 (human) (UniProt P53350)
[1] = tested on: RET (human), P07949 [M918T]
RET (human), P07949 [M918T], sequence (P07949 whole entry M918T, looked up): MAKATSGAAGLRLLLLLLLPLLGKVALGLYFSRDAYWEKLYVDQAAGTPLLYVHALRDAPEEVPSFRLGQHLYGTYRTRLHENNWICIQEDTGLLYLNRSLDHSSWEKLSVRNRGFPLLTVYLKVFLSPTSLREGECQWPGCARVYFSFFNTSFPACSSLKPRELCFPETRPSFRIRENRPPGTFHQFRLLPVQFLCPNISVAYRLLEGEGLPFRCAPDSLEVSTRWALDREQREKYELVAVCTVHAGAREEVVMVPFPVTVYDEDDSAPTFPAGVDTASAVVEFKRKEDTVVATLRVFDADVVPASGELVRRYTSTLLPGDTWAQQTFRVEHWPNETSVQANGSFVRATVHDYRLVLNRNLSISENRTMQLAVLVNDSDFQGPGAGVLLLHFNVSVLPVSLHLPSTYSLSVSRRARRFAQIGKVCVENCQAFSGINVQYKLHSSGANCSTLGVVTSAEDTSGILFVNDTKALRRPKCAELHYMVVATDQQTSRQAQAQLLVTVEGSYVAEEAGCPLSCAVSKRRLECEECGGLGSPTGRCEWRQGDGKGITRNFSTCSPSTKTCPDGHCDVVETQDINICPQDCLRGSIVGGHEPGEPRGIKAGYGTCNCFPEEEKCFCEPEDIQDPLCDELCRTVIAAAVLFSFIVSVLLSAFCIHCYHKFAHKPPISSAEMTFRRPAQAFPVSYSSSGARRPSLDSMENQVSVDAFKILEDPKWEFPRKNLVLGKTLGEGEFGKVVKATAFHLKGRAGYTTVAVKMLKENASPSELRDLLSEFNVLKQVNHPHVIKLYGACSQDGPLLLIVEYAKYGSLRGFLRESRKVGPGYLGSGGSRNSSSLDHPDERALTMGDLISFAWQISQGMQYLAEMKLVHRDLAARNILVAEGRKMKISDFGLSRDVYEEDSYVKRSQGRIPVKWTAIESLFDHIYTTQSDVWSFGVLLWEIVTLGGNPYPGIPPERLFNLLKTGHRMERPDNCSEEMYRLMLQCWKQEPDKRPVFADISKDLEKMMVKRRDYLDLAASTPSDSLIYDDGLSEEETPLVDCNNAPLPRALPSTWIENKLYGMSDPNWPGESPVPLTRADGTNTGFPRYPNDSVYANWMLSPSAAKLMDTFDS

CDKL2 (human) = CDKL2 (human) (UniProt Q92772)
STK33 (human) = STK33 (human) (UniProt Q9BYT3)
PRKD1 (human) = PRKD1 (human) (UniProt Q15139)
PRKD1 (human), sequence (Q15139 whole entry, looked up): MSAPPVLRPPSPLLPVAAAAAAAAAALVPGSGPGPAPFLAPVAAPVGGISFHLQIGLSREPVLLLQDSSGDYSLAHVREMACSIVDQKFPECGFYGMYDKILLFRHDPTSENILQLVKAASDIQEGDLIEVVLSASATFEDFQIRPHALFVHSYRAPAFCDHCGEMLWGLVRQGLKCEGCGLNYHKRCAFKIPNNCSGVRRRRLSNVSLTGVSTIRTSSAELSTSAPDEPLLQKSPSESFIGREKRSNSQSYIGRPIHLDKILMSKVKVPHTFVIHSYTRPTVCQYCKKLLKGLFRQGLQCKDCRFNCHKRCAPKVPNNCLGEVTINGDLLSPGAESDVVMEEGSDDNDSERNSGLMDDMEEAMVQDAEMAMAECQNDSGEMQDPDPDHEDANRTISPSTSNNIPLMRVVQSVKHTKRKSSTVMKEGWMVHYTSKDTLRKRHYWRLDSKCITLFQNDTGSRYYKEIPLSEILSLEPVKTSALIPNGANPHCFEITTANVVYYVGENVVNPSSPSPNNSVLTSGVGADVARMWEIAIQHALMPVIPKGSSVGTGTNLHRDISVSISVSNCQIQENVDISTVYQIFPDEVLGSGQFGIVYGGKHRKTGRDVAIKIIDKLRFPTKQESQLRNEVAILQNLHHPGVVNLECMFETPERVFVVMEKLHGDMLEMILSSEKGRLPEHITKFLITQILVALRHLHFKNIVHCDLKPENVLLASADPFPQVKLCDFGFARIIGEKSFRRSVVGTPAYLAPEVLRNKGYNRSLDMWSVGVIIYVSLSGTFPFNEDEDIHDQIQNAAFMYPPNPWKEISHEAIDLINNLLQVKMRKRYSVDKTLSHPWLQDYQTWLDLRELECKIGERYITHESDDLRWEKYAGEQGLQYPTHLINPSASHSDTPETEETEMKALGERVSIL

NEK6 (human) = NEK6 (human) (UniProt Q9HC98)
NEK6 (human), sequence (Q9HC98 whole entry, looked up): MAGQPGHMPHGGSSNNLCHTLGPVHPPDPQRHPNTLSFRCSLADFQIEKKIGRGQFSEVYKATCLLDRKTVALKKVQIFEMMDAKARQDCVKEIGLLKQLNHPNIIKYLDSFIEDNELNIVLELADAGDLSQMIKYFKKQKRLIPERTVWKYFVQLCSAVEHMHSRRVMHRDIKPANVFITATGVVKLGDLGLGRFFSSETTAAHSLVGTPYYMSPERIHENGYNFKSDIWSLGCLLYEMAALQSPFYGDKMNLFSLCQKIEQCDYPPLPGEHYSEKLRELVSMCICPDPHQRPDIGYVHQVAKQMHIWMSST

MAST1 (human) = MAST1 (human) (UniProt Q9Y2H9)
LYN (human) = LYN (human) (UniProt P07948)
SYK (human) = SYK (human) (UniProt P43405)
CDK18 (human) = CDK18 (human) (UniProt Q07002)
CDK18 (human), sequence (Q07002 whole entry, looked up): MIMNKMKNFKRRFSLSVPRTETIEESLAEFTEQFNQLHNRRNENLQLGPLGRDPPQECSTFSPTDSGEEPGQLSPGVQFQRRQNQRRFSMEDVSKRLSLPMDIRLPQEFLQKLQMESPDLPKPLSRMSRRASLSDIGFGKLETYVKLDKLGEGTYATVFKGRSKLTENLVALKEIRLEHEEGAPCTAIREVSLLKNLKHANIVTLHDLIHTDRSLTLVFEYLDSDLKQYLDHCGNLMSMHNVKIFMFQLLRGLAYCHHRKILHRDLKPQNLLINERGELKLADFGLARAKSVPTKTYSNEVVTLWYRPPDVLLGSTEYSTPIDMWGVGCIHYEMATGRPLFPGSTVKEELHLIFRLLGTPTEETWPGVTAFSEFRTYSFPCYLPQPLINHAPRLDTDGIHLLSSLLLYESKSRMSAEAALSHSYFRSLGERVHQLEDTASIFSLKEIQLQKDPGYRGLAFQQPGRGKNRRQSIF

CDK11B (human) = CDK11B (human) (UniProt P21127)
INSR (human) = INSR (human) (UniProt P06213)
CDK8 (human) = CDK8 (human) (UniProt P49336)
MAPK6 (human) = MAPK6 (human) (UniProt Q16659)
STK39 (human) = STK39 (human) (UniProt Q9UEW8)
NEK3 (human) = NEK3 (human) (UniProt P51956)
MAPK9 (human) = MAPK9 (human) (UniProt P45984)
MAP2K2 (human) = MAP2K2 (human) (UniProt P36507)
PAK7 (human) = PAK7 (human) (UniProt Q9P286)
TSSK1B (human) = TSSK1B (human) (UniProt Q9BXA7)
EPHA3 (human) = EPHA3 (human) (UniProt P29320)
EPHA3 (human), sequence (P29320 whole entry, looked up): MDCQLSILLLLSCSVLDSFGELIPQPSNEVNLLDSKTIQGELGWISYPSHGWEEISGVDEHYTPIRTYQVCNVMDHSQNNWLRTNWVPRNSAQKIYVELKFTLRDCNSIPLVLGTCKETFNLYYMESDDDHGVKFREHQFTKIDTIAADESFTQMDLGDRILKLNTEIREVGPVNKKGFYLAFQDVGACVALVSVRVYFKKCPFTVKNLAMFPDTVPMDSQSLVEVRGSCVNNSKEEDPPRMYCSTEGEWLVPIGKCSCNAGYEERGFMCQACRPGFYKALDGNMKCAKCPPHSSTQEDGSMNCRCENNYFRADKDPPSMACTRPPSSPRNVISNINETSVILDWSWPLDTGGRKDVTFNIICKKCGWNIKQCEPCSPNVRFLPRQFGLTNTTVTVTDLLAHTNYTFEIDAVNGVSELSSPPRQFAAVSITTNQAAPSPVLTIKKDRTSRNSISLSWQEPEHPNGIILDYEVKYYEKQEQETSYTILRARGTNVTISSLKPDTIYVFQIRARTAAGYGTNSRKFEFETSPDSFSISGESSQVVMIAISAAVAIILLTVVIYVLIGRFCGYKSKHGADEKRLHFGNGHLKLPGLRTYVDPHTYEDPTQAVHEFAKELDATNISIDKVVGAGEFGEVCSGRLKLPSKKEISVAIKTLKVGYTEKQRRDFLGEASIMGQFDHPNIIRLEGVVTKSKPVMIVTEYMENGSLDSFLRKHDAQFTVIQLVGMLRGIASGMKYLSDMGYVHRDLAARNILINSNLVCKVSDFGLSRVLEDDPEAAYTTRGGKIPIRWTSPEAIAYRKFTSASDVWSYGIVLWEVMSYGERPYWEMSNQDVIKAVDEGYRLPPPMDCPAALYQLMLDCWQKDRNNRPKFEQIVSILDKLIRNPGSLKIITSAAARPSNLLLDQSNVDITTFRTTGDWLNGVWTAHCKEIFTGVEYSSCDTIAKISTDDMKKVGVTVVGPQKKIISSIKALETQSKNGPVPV

SRC (human) = SRC (human) (UniProt P12931)
[2] = tested on: EGFR (human), P00533 [752-759 del]
MAPK1 (human) = MAPK1 (human) (UniProt P28482)
NUAK2 (human) = NUAK2 (human) (UniProt Q9H093)
ERBB4 (human) = ERBB4 (human) (UniProt Q15303)
[3] = tested on: EGFR (human), P00533 [747-751 del / S ins]
DCLK1 (human) = DCLK1 (human) (UniProt O15075)
DCLK1 (human), sequence (O15075 whole entry, looked up): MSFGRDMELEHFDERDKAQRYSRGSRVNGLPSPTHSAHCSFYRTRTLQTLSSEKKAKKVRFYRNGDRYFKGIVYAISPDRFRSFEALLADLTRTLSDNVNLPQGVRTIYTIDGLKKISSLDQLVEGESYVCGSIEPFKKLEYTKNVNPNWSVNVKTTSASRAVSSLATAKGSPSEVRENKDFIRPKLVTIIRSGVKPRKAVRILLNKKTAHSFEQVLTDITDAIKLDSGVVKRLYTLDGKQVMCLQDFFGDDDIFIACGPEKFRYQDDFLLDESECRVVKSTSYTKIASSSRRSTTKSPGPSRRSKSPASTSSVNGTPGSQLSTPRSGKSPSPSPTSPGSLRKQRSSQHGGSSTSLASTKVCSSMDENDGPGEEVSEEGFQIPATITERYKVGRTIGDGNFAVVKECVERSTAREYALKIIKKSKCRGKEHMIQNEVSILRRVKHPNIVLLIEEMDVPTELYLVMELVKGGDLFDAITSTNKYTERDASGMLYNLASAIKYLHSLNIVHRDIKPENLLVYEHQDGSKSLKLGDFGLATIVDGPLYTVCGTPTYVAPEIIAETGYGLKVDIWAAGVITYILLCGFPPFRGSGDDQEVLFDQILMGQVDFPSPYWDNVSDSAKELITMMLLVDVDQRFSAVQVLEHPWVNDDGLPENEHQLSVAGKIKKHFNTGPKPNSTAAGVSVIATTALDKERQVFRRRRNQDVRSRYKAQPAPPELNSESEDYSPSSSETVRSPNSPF

ERBB2 (human) = ERBB2 (human) (UniProt P04626)
ADCK3 (human) = ADCK3 (human) (UniProt Q8NI60)

CDK17 (human), sequence (Q00537 whole entry, looked up): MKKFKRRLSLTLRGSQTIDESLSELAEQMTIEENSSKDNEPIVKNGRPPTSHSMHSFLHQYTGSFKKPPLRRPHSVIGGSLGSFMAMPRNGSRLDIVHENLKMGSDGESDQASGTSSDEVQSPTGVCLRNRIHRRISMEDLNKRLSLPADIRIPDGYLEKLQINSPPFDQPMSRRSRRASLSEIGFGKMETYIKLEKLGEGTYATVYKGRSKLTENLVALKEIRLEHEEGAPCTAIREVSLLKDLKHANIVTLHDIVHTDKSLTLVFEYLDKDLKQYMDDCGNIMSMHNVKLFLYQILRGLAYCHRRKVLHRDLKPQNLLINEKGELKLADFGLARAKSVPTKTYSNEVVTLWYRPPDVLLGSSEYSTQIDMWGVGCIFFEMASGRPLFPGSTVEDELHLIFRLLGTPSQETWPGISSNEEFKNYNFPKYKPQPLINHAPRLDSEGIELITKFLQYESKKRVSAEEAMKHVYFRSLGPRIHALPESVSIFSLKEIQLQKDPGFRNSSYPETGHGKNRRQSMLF

## COc1cc(C(=O)N2CCC(N3CCN(C)CC3)CC2)ccc1Nc1ncc2c(n1)N(C)c1ccccc1C(=O)N2C
SIK3 (human)
  kinase still bound, per cent of control: 100%
PRKCI (human)
  kinase still bound, per cent of control: 100%
HIPK4 (human)
  kinase still bound, per cent of control: 100%
RPS6KA5 KD1 (human)
  kinase still bound, per cent of control: 96%
RET (human)
  kinase still bound, per cent of control: 100%
CDK17 (human)
  kinase still bound, per cent of control: 83%
CDK4 CCND1 (human)
  kinase still bound, per cent of control: 100%
AAK1 (human)
  kinase still bound, per cent of control: 84%
RPS6KA2 KD1 (human)
  kinase still bound, per cent of control: 83%
PRKG1 (human)
  kinase still bound, per cent of control: 98%
PLK1 (human)
  kinase still bound, per cent of control: 0.7%
[1]
  kinase still bound, per cent of control: 100%
CDKL2 (human)
  kinase still bound, per cent of control: 100%
STK33 (human)
  kinase still bound, per cent of control: 10%
PRKD1 (human)
  kinase still bound, per cent of control: 28%
NEK6 (human)
  kinase still bound, per cent of control: 76%
MAST1 (human)
  kinase still bound, per cent of control: 100%
LYN (human)
  kinase still bound, per cent of control: 100%
SYK (human)
  kinase still bound, per cent of control: 100%
CDK18 (human)
  kinase still bound, per cent of control: 100%
CDK11B (human)
  kinase still bound, per cent of control: 84%
INSR (human)
  kinase still bound, per cent of control: 84%
CDK8 (human)
  kinase still bound, per cent of control: 100%
MAPK6 (human)
  kinase still bound, per cent of control: 100%
STK39 (human)
  kinase still bound, per cent of control: 39%
NEK3 (human)
  kinase still bound, per cent of control: 100%
MAPK9 (human)
  kinase still bound, per cent of control: 94%
MAP2K2 (human)
  kinase still bound, per cent of control: 99%
PAK7 (human)
  kinase still bound, per cent of control: 96%
TSSK1B (human)
  kinase still bound, per cent of control: 60%
EPHA3 (human)
  kinase still bound, per cent of control: 100%
SRC (human)
  kinase still bound, per cent of control: 100%
[2]
  kinase still bound, per cent of control: 99%
MAPK1 (human)
  kinase still bound, per cent of control: 85%
NUAK2 (human)
  kinase still bound, per cent of control: 47%
ERBB4 (human)
  kinase still bound, per cent of control: 100%
[3]
  kinase still bound, per cent of control: 100%
DCLK1 (human)
  kinase still bound, per cent of control: 4.2%
ERBB2 (human)
  kinase still bound, per cent of control: 100%
ADCK3 (human)
  kinase still bound, per cent of control: 71%
